*1 amine or outer side, *2 acyl side, *3 side chain or, on linkers, in order; H or OH if unused. Where a SMILES comes first, the peptide text is derived from it. [ ]: non-standard residue; d: D form. The star is where a group is joined. AMC = Cc1cc(=O)oc2cc(N*)ccc12; pGlu = O=C1CC[C@@H](C(=O)O)N1; Suc = O=C(CCC(=O)[*:2])[*:1]; Cbz = O=C(OCc1ccccc1)*; CH2Cl = ClC*
Key:
[1] = system: Cat2 S1 fur extract proteolytic activity; assay: Proteolytic activity of fur extract against NHMec substrates; assay type: biochemical, cat; settings: sample Cat2 S1, 5 μM substrate, 37° C., pH 7.5
Protocol: (§1) A clean pet brush was used to brush three common English domestic cats. Fur from guinea pigs, rabbit, dogs and horse was collected in the same way. A different brush was used for each species and between brushings these were cleaned thoroughly in a denaturing detergent solution (Fairy® detergent) and then ethanol. The brushings were transferred to a sterile universal container and extracted by shaking in an extraction buffer, 50 mM Tris.HCl, 5 mM CaCl2, pH 7.5 (0.1 g/ml). The solution was recovered by centrifugation and stored at −20° C. in aliquots. Saliva was collected from a mastiff-type dog and stored frozen in aliquots until assayed. Sample aliquots were assayed for proteolytic activity using fluorometric blocked peptidylaminomethylcoumarylamide substrates in the cuvette of a Perkin Elmer fluorimeter at 37° C. The fluorimeter was standardised with a known concentration of methylcoumarin, and the assays were designed so that no more than 10% substrate hydrolysis occurred.
(§2) Assays were performed in assay buffer; 50 mM Tris.HCl, 5 mM CaCl2, 0.1% CHAPS, pH 7.5. Data were collected in real-time on a personal computer using the Flusys software package.
(§3) In the first series of experiments the sample (12 μl) was assayed against a range of serine and cysteine proteinase aminomethylcoumarylamide (NHMec) substrates (obtained commercially from Bachem) under standard conditions of 5 μM substrate concentration (from a 100-fold stock solution in dimethyl sulfoxide) to give a final volume of 120 μl. After addition of substrate the rate without sample was determined (which in all cases was zero), after which the sample was applied and the progress of the reaction was followed for a further 15 min. The slope obtained (fluorescence vs time) was analysed by linear regression and converted to rate of product formation (nM/min) see results table 2.

[2] = system: Cat1 S1 fur extract proteolytic activity; assay: as above; assay type: biochemical, cat; settings: sample Cat1 S1, 5 μM substrate, 37° C., pH 7.5
Protocol: as §1, §2, §3

[3] = system: Cat1 S3 fur extract proteolytic activity; assay: Inhibition of the proteolytic activity in animal fur by proteinase inhibitors; assay type: biochemical, cat; settings: Cat1 S3, 10 μM inhibitor, substrate 1 Z-Gly-Gly-Arg-NHMec
Protocol: […] The assay was begun with substrate and sample and a continuous rate of product formation (nM/min) was measured (v0) for 15 min. The inhibitor was added to a final concentration of 10 μM in negligible volume from stock solution in dimethyl sulfoxide. The assay was continued for a further 15 min.
(§4) Under these conditions reversible inhibition can be measured as the new steady state (v1) with percentage inhibition being 1−(v1/v0)×100. Irreversible inhibition is measured as a second order rate constant and is time dependent but as long as the inhibitor is present in molar excess should always lead eventually to total inhibition. No distinction was made and inhibition is presented as a percentage of full activity. See results table 4.

[4] = system: Cat1 S3 fur extract proteolytic activity; assay: Determination of Ki for the inhibition of Cat1 S3 by leupeptin; assay type: biochemical, cat; parameters: V1: unit not given beside the values
Protocol: The assays were carried out as described above, using 5 μM Z-Gly-Gly-Arg-NHMec as substrate in assay buffer. The assay was begun with substrate and sample and a continuous rate of product formation (nM/min) was measured (v0) for 15 min. […] The assay was continued for a further 15 min.
as §4

cat fur enzyme(s) = assay: Rates of cleavage at varying substrate concentration and Km; assay type: biochemical; settings: for Rate: cat fur sample
Protocol: as §3
A rough estimate of the Km for the cleavage of Z-Gly-Gly-Arg-NHMec and of Z-Phe-Arg-NHMec by the cat fur enzyme(s) were determined using the same procedure with varying concentrations of these substrates see results table 3.
As the activity follows normal Michaelis-Menten kinetics it is clear that it is due to the activity of one or more biological catalysts or enzymes.

[5] = system: Dog1 S2 saliva proteolytic activity; assay: Proteolytic activity of saliva against NHMec substrates; assay type: biochemical, dog; settings: sample Dog1 S2 (saliva), 5 μM substrate, 37° C., pH 7.5
Protocol: as §1, with “Sample aliquots were assayed for proteolytic activity using fluorometric blocked peptidylaminomethylcoumarylamide substrates in the cuvette of a Perkin Elmer fluorimeter at 37° C. The fluorimeter was standardised with a known concentration of methylcoumarin, and the assays were designed so that no more than 10% substrate hydrolysis occurred.” left out
as §3

[6] = system: Dog1 S1 fur extract proteolytic activity; assay: Proteolytic activity of fur extract against NHMec substrates; assay type: biochemical, dog; settings: sample Dog1 S1 (fur), 5 μM substrate, 37° C., pH 7.5
Protocol: as §1, with “Sample aliquots were assayed for proteolytic activity using fluorometric blocked peptidylaminomethylcoumarylamide substrates in the cuvette of a Perkin Elmer fluorimeter at 37° C. The fluorimeter was standardised with a known concentration of methylcoumarin, and the assays were designed so that no more than 10% substrate hydrolysis occurred.” left out
as §3

[7] = system: Cat1 S3 fur extract proteolytic activity; assay: as above; assay type: biochemical, cat; settings: sample Cat1 S3, 5 μM substrate, 37° C., pH 7.5
Protocol: as §1, §2, §3

[8] = system: Cat3 S1 fur extract proteolytic activity; assay: as above; assay type: biochemical, cat; settings: sample Cat3 S1, 5 μM substrate, 37° C., pH 7.5
Protocol: as §1, §2, §3

[9] = system: G. pig2 S1 fur extract proteolytic activity; assay: as above; assay type: biochemical, guinea pig; settings: sample G. pig2 S1, 5 μM substrate, 37° C., pH 7.5
Protocol: as §1, with “Sample aliquots were assayed for proteolytic activity using fluorometric blocked peptidylaminomethylcoumarylamide substrates in the cuvette of a Perkin Elmer fluorimeter at 37° C. The fluorimeter was standardised with a known concentration of methylcoumarin, and the assays were designed so that no more than 10% substrate hydrolysis occurred.” left out
as §3

[10] = system: G. pig1 S1 fur extract proteolytic activity; assay: as above; assay type: biochemical, guinea pig; settings: sample G. pig1 S1, 5 μM substrate, 37° C., pH 7.5
Protocol: as §1, with “Sample aliquots were assayed for proteolytic activity using fluorometric blocked peptidylaminomethylcoumarylamide substrates in the cuvette of a Perkin Elmer fluorimeter at 37° C. The fluorimeter was standardised with a known concentration of methylcoumarin, and the assays were designed so that no more than 10% substrate hydrolysis occurred.” left out
as §3

[11] = system: Rabbit1 S1 fur extract proteolytic activity; assay: as above; assay type: biochemical, rabbit; settings: sample Rabbit1 S1, 5 μM substrate, 37° C., pH 7.5
Protocol: as §1, with “Sample aliquots were assayed for proteolytic activity using fluorometric blocked peptidylaminomethylcoumarylamide substrates in the cuvette of a Perkin Elmer fluorimeter at 37° C. The fluorimeter was standardised with a known concentration of methylcoumarin, and the assays were designed so that no more than 10% substrate hydrolysis occurred.” left out
as §3

Cc1cc(=O)oc2cc(NC(=O)[C@H](Cc3ccccc3)NC(=O)[C@@H]3CCCN3C(=O)[C@H](C)NC(=O)[C@H](C)NC(=O)CCC(=O)O)ccc12 [Suc-Ala-Ala-Pro-Phe-NHMec] (Suc-AAPF-{AMC})
Rate [1]: 0.05 nM/min | Rate [2]: 0.04 nM/min

Cc1cc(=O)oc2cc(NC(=O)[C@H](CCCN=C(N)N)NC(=O)[C@H](CCCCN)NC(=O)[C@@H](NC(=O)[C@H](CCCN=C(N)N)NC(=O)[C@@H]3CCC(=O)N3)[C@@H](C)O)ccc12 [Pyr-Arg-Thr-Lys-Arg-NHMec] ([pGlu]RTKR-{AMC})
Rate [1]: 0.33 nM/min | Rate [2]: 0.58 nM/min

CC(=O)N[C@@H](CC(C)C)C(=O)N[C@@H](CC(C)C)C(=O)N[C@H](C=O)CCCNC(=N)N [Leupeptin, acetyl-Leu-Leu-Arg-CHO]
% Inhibition [3]: 100% | v1 (rate after inhibitor) [3]: 0 nM/min | % Inhibition ([4]; Cat1 S3, [I] 0.5 nM): 25.0% | V1 ([4]; Cat1 S3, [I] 0.5 nM): 6.0 | % Inhibition ([4]; Cat1 S3, [I] 1.0 nM): 24.3% | V1 ([4]; Cat1 S3, [I] 1.0 nM): 5.6 | % Inhibition ([4]; Cat1 S3, [I] 5.0 nM): 37.9% | V1 ([4]; Cat1 S3, [I] 5.0 nM): 4.9 | % Inhibition ([4]; Cat1 S3, [I] 10.0 nM): 53.2% | V1 ([4]; Cat1 S3, [I] 10.0 nM): 4.4 | % Inhibition ([4]; Cat1 S3, [I] 50.0 nM): 68.7% | V1 ([4]; Cat1 S3, [I] 50.0 nM): 2.6 | % Inhibition ([4]; Cat1 S3, [I] 100.0 nM): 78.0% | V1 ([4]; Cat1 S3, [I] 100.0 nM): 1.8 | Ki ([4]; found using the Enzfitter software package, read-out: Kl for the inhibition of Cat1 S3): 2.64 nM

O=c1oc(Cl)c(Cl)c2ccccc12 [3,4-Dichloroisocoumarin]
% Inhibition [3]: 35.4% | v1 (rate after inhibitor) [3]: 1.837 nM/min

Cc1cc(=O)oc2cc(NC(=O)[C@H](Cc3ccccc3)NC(=O)[C@H](C)NC(=O)[C@H](C)NC(=O)CCC(=O)O)ccc12 [Suc-Ala-Ala-Phe-NHMec] (Suc-Ala-Ala-Phe-{AMC})
Rate [1]: 0.03 nM/min | Rate [2]: No activity

Cc1cc(=O)oc2cc(NC(=O)C(CCCN=C(N)N)NC(=O)C(Cc3ccccc3)NC(=O)OCc3ccccc3)ccc12 (stereo not drawn) [Z-Phe-Arg-NHMec] (Cbz-Phe-Arg-{AMC}; configuration not given here)
Rate (cat fur enzyme(s); [Substrate] 0.5 μM): 3.74 nM/min | Rate (cat fur enzyme(s); [Substrate] 1.0 μM): 6.99 nM/min | Rate (cat fur enzyme(s); [Substrate] 2.0 μM): 10.2 nM/min | Rate (cat fur enzyme(s); [Substrate] 5 μM): 27.3 nM/min | Rate (cat fur enzyme(s); [Substrate] 60 μM): 35.4 nM/min | Rate (cat fur enzyme(s); [Substrate] 80 μM): 32.3 nM/min | Rate (cat fur enzyme(s); [Substrate] 100 μM): 33.7 nM/min | Km (cat fur enzyme(s); non-linear regression, Enzfitter, rough estimate): 3.2 ± 0.9 µM | Rate [5]: 1786.9 nM/min | Rate [6]: 40.6 nM/min | Rate [7]: 43.5 nM/min | Rate [8]: 24.5 nM/min | Rate [9]: 18.66 nM/min | Rate [10]: 9.11 nM/min | Rate [11]: 3.93 nM/min

CC(C)C[C@H](NC(=O)[C@H]1O[C@@H]1C(=O)O)C(=O)NCCCCN=C(N)N (relative stereo) [E64, L-trans epoxysuccinyl-leucylamido-4-guanidino-butane]
% Inhibition [3]: 20.4% | v1 (rate after inhibitor) [3]: 2.005 nM/min

NC(N)=NCCC[C@H](NC(=O)CNC(=O)[C@@H](N)CCC(=O)O)C(=O)CCl [H-Glu-Gly-Arg-chloromethane] (H-Glu-Gly-Arg-CH2Cl)
% Inhibition [3]: 98.7% | v1 (rate after inhibitor) [3]: 0.143 nM/min
